Test results: US9738634B2, “Heterocyclic amide compound and herbicide” (SYNGENTA PARTICIPATIONS AG, priority 2013, dated 2017)

Key:
Format in all cases: in vivo
Details in all cases: treatment dosage 320 g/ha
crabgrass [1] = test: Test Example 3: weedkilling efficacy through soil treatment; D: crabgrass
Procedure, shortened: (§1)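 Crop and weed responses were judged three weeks after a uniform surface spray of the water-diluted emulsion at the given g/ha rate. Seeds sat beneath about 1.5 cm of sterilized diluvial soil, and boxes stood in a greenhouse at 25 to 30° C.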

redroot pigweed [2] = test: Test Example 4: weedkilling efficacy by foliar treatment; L: redroot pigweed
Procedure, shortened: (§2)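 Seeds are spot-sown into sterilized diluvial soil and covered with about 1.5 cm of soil. After 14 days' greenhouse growth at 25 to 30° C, plants are sprayed on stems and leaves with diluted emulsion at the stated g/ha rate, then scored at 3 weeks.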

fig-leafed goosefoot [3] = test: Test Example 4: weedkilling efficacy by foliar treatment; M: fig-leafed goosefoot
Procedure, shortened: as §2

barnyard grass [4] = test: Test Example 4: weedkilling efficacy by foliar treatment; F: barnyard grass
Procedure, shortened: as §2

common wind-grass [5] = test: Test Example 3: weedkilling efficacy through soil treatment; J: common wind-grass
Procedure, shortened: as §1

crabgrass [6] = test: Test Example 4: weedkilling efficacy by foliar treatment; D: crabgrass
Procedure, shortened: as §2

wild oat [7] = test: Test Example 4: weedkilling efficacy by foliar treatment; G: wild oat
Procedure, shortened: as §2

black-grass [8] = test: Test Example 3: weedkilling efficacy through soil treatment; H: black-grass
Procedure, shortened: as §1

soybean [9] = test: Test Example 4: foliar treatment, effect on crop; d: soybean
Procedure, shortened: as §2

rapeseed [10] = test: Test Example 3: soil treatment, effect on crop; g: rapeseed
Procedure, shortened: as §1

Italian ryegrass [11] = test: Test Example 3: weedkilling efficacy through soil treatment; I: Italian ryegrass
Procedure, shortened: as §1

corn [12] = test: Test Example 4: foliar treatment, effect on crop; c: corn
Procedure, shortened: as §2

common wind-grass [13] = test: Test Example 4: weedkilling efficacy by foliar treatment; J: common wind-grass
Procedure, shortened: as §2

wild oat [14] = test: Test Example 3: weedkilling efficacy through soil treatment; G: wild oat
Procedure, shortened: as §1

soybean [15] = test: Test Example 3: soil treatment, effect on crop; d: soybean
Procedure, shortened: as §1

Indian mallow [16] = test: Test Example 3: weedkilling efficacy through soil treatment; K: Indian mallow
Procedure, shortened: as §1

catchweed [17] = test: Test Example 3: weedkilling efficacy through soil treatment; O: catchweed
Procedure, shortened: as §1

wheat [18] = test: Test Example 4: foliar treatment, effect on crop; e: wheat
Procedure, shortened: as §2

wheat [19] = test: Test Example 3: soil treatment, effect on crop; e: wheat
Procedure, shortened: as §1

Indian mallow [20] = test: Test Example 4: weedkilling efficacy by foliar treatment; K: Indian mallow
Procedure, shortened: as §2

fig-leafed goosefoot [21] = test: Test Example 3: weedkilling efficacy through soil treatment; M: fig-leafed goosefoot
Procedure, shortened: as §1

green foxtail [22] = test: Test Example 4: weedkilling efficacy by foliar treatment; E: green foxtail
Procedure, shortened: as §2

chickweed [23] = test: Test Example 3: weedkilling efficacy through soil treatment; N: chickweed
Procedure, shortened: as §1

birds-eye speedwell = test: Test Example 3: weedkilling efficacy through soil treatment; p: birds-eye speedwell
Procedure, shortened: as §1

black-grass [24] = test: Test Example 4: weedkilling efficacy by foliar treatment; H: black-grass
Procedure, shortened: as §2

barnyard grass [25] = test: Test Example 3: weedkilling efficacy through soil treatment; F: barnyard grass
Procedure, shortened: as §1

directly sown rice [26] = test: Test Example 4: foliar treatment, effect on crop; b: directly sown rice
Procedure, shortened: as §2

redroot pigweed [27] = test: Test Example 3: weedkilling efficacy through soil treatment; L: redroot pigweed
Procedure, shortened: as §1

catchweed [28] = test: Test Example 4: weedkilling efficacy by foliar treatment; O: catchweed
Procedure, shortened: as §2

rapeseed [29] = test: Test Example 4: foliar treatment, effect on crop; g: rapeseed
Procedure, shortened: as §2

directly sown rice [30] = test: Test Example 3: soil treatment, effect on crop; b: directly sown rice
Procedure, shortened: as §1

green foxtail [31] = test: Test Example 3: weedkilling efficacy through soil treatment; E: green foxtail
Procedure, shortened: as §1

beet = test: Test Example 4: foliar treatment, effect on crop; f: beet
Procedure, shortened: as §2

Italian ryegrass [32] = test: Test Example 4: weedkilling efficacy by foliar treatment; I: Italian ryegrass
Procedure, shortened: as §2

chickweed [33] = test: Test Example 4: weedkilling efficacy by foliar treatment; N: chickweed
Procedure, shortened: as §2

corn [34] = test: Test Example 3: soil treatment, effect on crop; c: corn
Procedure, shortened: as §1

CC1=C(c2cccnc2F)C(=O)N(C(C)(C)C(=O)Nc2cc(Cl)cc(Cl)n2)CO1 [B-2-11]
D (crabgrass) weedkilling efficacy grade (crabgrass [1]): 5 (weed kill ratio 90% or more, (practically complete withering)) | L (redroot pigweed) weedkilling efficacy grade (redroot pigweed [2]): 4 (weed kill ratio 70% or more, less than 90%) | M (fig-leafed goosefoot) weedkilling efficacy grade (fig-leafed goosefoot [3]): 5 (weed kill ratio 90% or more, (practically complete withering)) | F (barnyard grass) weedkilling efficacy grade (barnyard grass [4]): 5 (weed kill ratio 90% or more, (practically complete withering)) | J (common wind-grass) weedkilling efficacy grade (common wind-grass [5]): 5 (weed kill ratio 90% or more, (practically complete withering)) | D (crabgrass) weedkilling efficacy grade (crabgrass [6]): 5 (weed kill ratio 90% or more, (practically complete withering)) | G (wild oat) weedkilling efficacy grade (wild oat [7]): 4 (weed kill ratio 70% or more, less than 90%) | H (black-grass) weedkilling efficacy grade (black-grass [8]): 5 (weed kill ratio 90% or more, (practically complete withering)) | d (soybean) effect on crop grade (soybean [9]): 4 (weed kill ratio 70% or more, less than 90%) | g (rapeseed) effect on crop grade (rapeseed [10]): 1 (weed kill ratio 5% or more, less than 20%) | I (Italian ryegrass) weedkilling efficacy grade (Italian ryegrass [11]): 5 (weed kill ratio 90% or more, (practically complete withering)) | c (corn) effect on crop grade (corn [12]): 5 (weed kill ratio 90% or more, (practically complete withering)) | J (common wind-grass) weedkilling efficacy grade (common wind-grass [13]): 5 (weed kill ratio 90% or more, (practically complete withering)) | G (wild oat) weedkilling efficacy grade (wild oat [14]): 3 (weed kill ratio 40% or more, less than 70%) | d (soybean) effect on crop grade (soybean [15]): 0 (weed kill ratio 5% or less (practically no effect)) | K (Indian mallow) weedkilling efficacy grade (Indian mallow [16]): 0 (weed kill ratio 5% or less (practically no effect)) | O (catchweed) weedkilling efficacy grade (catchweed [17]): 3 (weed kill ratio 40% or more, less than 70%) | e (wheat) effect on crop grade (wheat [18]): 0 (weed kill ratio 5% or less (practically no effect)) | e (wheat) effect on crop grade (wheat [19]): 0 (weed kill ratio 5% or less (practically no effect)) | K (Indian mallow) weedkilling efficacy grade (Indian mallow [20]): 5 (weed kill ratio 90% or more, (practically complete withering)) | M (fig-leafed goosefoot) weedkilling efficacy grade (fig-leafed goosefoot [21]): 4 (weed kill ratio 70% or more, less than 90%) | E (green foxtail) weedkilling efficacy grade (green foxtail [22]): 5 (weed kill ratio 90% or more, (practically complete withering)) | N (chickweed) weedkilling efficacy grade (chickweed [23]): 4 (weed kill ratio 70% or more, less than 90%) | P (birds-eye speedwell) weedkilling efficacy grade (birds-eye speedwell): 5 (weed kill ratio 90% or more, (practically complete withering)) | H (black-grass) weedkilling efficacy grade (black-grass [24]): 5 (weed kill ratio 90% or more, (practically complete withering)) | F (barnyard grass) weedkilling efficacy grade (barnyard grass [25]): 5 (weed kill ratio 90% or more, (practically complete withering)) | b (directly sown rice) effect on crop grade (directly sown rice [26]): 3 (weed kill ratio 40% or more, less than 70%) | L (redroot pigweed) weedkilling efficacy grade (redroot pigweed [27]): 0 (weed kill ratio 5% or less (practically no effect)) | O (catchweed) weedkilling efficacy grade (catchweed [28]): 4 (weed kill ratio 70% or more, less than 90%) | g (rapeseed) effect on crop grade (rapeseed [29]): 4 (weed kill ratio 70% or more, less than 90%) | b (directly sown rice) effect on crop grade (directly sown rice [30]): 3 (weed kill ratio 40% or more, less than 70%) | E (green foxtail) weedkilling efficacy grade (green foxtail [31]): 5 (weed kill ratio 90% or more, (practically complete withering)) | f (beet) effect on crop grade (beet): 4 (weed kill ratio 70% or more, less than 90%) | I (Italian ryegrass) weedkilling efficacy grade (Italian ryegrass [32]): 5 (weed kill ratio 90% or more, (practically complete withering)) | N (chickweed) weedkilling efficacy grade (chickweed [33]): 4 (weed kill ratio 70% or more, less than 90%) | c (corn) effect on crop grade (corn [34]): 1 (weed kill ratio 5% or more, less than 20%)
